pEC50, pKi: −log10 of the molar value. Read-outs that look alike come from different tables or passages of the source. Bridge positions count the residues as written; N and C are the ends. Square brackets hold non-standard residues; d marks the D form. Peptide text beside a SMILES is read from it. Bip = N[C@@H](Cc1ccc(-c2ccccc2)cc1)C(=O)O; 1Nal = N[C@@H](Cc1cccc2ccccc12)C(=O)O; d2Nal = N[C@H](Cc1ccc2ccccc2c1)C(=O)O; hArg = N=C(N)NCCCC[C@H](N)C(=O)O; Pen = CC(C)(S)[C@H](N)C(=O)O; Nle = CCCC[C@H](N)C(=O)O; Ahx = NCCCCCC(=O)O; GABA = NCCCC(=O)O; βAla = NCCC(=O)O
Assays:
[1] = molecular target: T1, hMC1-R (Homo sapiens, UniProt Q01726); test: Radioligand binding assay, [125I]-NDP-α-MSH competition, CHO-K1 membranes
T1 construct: expressed in transfected cells; host or cells: CHO-K1

[2] = molecular target: T2, hMC3-R (Homo sapiens, UniProt P41968); test: as above
T2 construct: expressed in transfected cells; host or cells: CHO-K1

[3] = molecular target: T3, hMC4-R (Homo sapiens, UniProt P32245); test: as above
T3 construct: expressed in transfected cells; host or cells: CHO-K1

[4] = molecular target: T4, hMC5-R (Homo sapiens, UniProt P33032); test: as above
T4 construct: expressed in transfected cells; host or cells: CHO-K1

[5] = molecular target: T1, hMC1-R; test: cyclic AMP bioassay (ECL) in CHO-K1 cells; type: cell-based
[6] = molecular target: T2, hMC3-R; test: cyclic AMP bioassay (ECL) in CHO-K1 cells; type: cell-based; settings: for Kb: Table 9C/9D, antagonist potency by Schild analysis, read-out: Kb hMC3-R
Procedure: Intracellular cyclic AMP (cAMP) levels were determined by an electrochemiluminescence (ECL) assay (Meso Scale Discovery®, Gaithersburg, Md.; referred to hereinafter as MSD). […] Transgenic CHO-K1 cells stably expressing hMC receptor subtypes 1, 3, 4 or 5 were dispensed at a density of approximately 7,000 cells/well in 384-well Multi-Array®plates (MSD) containing integrated carbon electrodes and coated with anti-cAMP antibody. Increasing concentrations of the test compounds were added and the cells were incubated for approximately 40 minutes at approximately 37° C. […] At the end of the second incubation period read buffer (Tris-buffered solution containing an ECL co-reactant and Triton X-100 at ph 7.8) was added and the cAMP levels in the cell lysates were immediately determined by ECL detection with a Sector Imager 6000 Reader® (MSD). Data were analyzed using a computer-assisted non-linear regression analysis (XL fit; IDBS) and reported as either an EC50 value or a Kb value.
The Kb value reflects the potency of an antagonist and is determined by Schild analysis. In brief, concentration-response curves of an agonist are carried out in the presence of increasing concentrations of an antagonist. […] It is calculated by extrapolating the line on a Schild plot to zero on the y-axis.

[7] = molecular target: T3, hMC4-R; test: cyclic AMP bioassay (ECL) in CHO-K1 cells; type: cell-based; settings: for Kb: Table 9C/9D, antagonist potency by Schild analysis, read-out: Kb MC4-R
[8] = molecular target: T4, hMC5-R; test: cyclic AMP bioassay (ECL) in CHO-K1 cells; type: cell-based
[9] = Table 9C/9D, read-out: EC50 hMC1-R
[10] = Table 9C/9D, read-out: EC50 hMC5-R
[11] = Table 9A/9B, read-out: EC50 hMC1-R
[12] = Table 9A/9B, read-out: EC50 hMC3-R
[13] = Table 9A/9B, read-out: EC50 hMC4-R
[14] = Table 9A/9B, read-out: EC50 hMC5-R

T3 sequence (P32245 whole entry): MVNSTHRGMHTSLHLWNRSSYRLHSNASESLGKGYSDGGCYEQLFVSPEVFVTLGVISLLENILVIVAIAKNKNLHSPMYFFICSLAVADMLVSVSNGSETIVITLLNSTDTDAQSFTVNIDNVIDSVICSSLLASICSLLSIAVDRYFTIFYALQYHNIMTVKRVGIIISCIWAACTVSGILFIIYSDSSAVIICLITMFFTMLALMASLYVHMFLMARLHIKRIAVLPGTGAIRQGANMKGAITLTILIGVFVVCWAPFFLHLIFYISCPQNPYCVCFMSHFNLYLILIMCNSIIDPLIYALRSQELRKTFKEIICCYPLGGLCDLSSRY
T4 sequence (P33032 whole entry): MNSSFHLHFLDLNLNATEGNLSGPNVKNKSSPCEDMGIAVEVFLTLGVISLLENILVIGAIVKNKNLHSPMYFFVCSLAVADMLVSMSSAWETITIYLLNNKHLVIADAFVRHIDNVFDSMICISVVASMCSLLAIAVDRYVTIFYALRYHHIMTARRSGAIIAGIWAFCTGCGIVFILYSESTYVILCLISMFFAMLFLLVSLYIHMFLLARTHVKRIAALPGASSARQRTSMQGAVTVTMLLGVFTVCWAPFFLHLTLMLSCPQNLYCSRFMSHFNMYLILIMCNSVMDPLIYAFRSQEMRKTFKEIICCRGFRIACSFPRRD
T2 sequence (P41968 whole entry): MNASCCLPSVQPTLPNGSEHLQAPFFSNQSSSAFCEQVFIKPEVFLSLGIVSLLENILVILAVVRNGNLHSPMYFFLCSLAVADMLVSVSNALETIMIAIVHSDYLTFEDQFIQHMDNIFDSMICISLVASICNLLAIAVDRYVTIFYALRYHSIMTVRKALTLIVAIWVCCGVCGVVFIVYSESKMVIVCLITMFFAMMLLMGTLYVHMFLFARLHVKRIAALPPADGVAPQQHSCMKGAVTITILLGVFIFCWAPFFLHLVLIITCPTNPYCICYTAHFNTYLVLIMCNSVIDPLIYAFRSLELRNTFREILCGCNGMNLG
T1 sequence (Q01726 whole entry): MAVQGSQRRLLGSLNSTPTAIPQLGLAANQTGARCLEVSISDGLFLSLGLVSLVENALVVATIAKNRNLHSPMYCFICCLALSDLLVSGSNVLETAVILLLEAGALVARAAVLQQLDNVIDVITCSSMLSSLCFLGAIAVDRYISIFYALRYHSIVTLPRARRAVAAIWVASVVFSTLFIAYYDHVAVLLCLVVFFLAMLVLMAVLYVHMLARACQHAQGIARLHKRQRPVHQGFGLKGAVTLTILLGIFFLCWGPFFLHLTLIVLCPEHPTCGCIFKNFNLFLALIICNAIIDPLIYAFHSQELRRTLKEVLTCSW

Row | Structure (SMILES) | pKi ([1]; Table 5, read-out: Ki hMC1-R) | pKi ([2]; Table 5, read-out: Ki hMC3-R) | pKi ([3]; Table 5, read-out: Ki KMC4-R) | pKi ([4]; Table 5, read-out: Ki hMC5-R) | pEC50 [5, 9] | Kb [6] [nM] | Kb [7] [nM] | pEC50 [8, 10] | further results
1 | CCCC[C@H](NC(C)=O)C(=O)N[C@H]1CSSC[C@@H](C(N)=O)NC(=O)[C@H](Cc2cccc3ccccc23)NC(=O)[C@H](CCCNC(=N)N)NC(=O)[C@@H](Cc2ccc3ccccc3c2)NC(=O)[C@H](Cc2c[nH]cn2)NC(=O)[C@@H](C)NC1=O [Ac-Nle-c(Cys-D-Ala-His-D-2-Nal-Arg-1-Nal-Cys)-NH2] (Ac-[Nle]C[dA]H[d2Nal]R[1Nal]C-NH2; disulfide 2-8) | 6.94 | 7.19 | 8.51 | 5.78 | 6.42 | 61.5 | 53.6 | 5.55 | –
2 | CC(=O)N[C@@H](CC1CCCCC1)C(=O)N[C@H]1CC(=O)NCCCC[C@@H](C(N)=O)NC(=O)CCCNC(=O)[C@H](Cc2c[nH]c3ccccc23)NC(=O)[C@H](CCCNC(=N)N)NC(=O)[C@@H](Cc2ccc3ccccc3c2)NC(=O)[C@H](Cc2c[nH]cn2)NC1=O [Ac-Cha-c(Asp-His-D-2-Nal-Arg-Trp-Gaba-Lys)-NH2] | 9.24 | 8.40 | 8.55 | 8.41 | 8.90 | 3.02 | 0.442 | 9.13 | –
3 | CCOc1ccc(C[C@H]2NC(=O)[C@H](Cc3c[nH]cn3)NC(=O)[C@@H](NC(=O)[C@H](N)Cc3ccccc3)CSSC[C@H](C(=O)N[C@H](C(N)=O)[C@@H](C)O)NC(=O)CCNC(=O)[C@H](Cc3c[nH]c4ccccc34)NC(=O)[C@H](CCCCNC(=N)N)NC2=O)cc1 [D-Phe-c(Cys-His-D-(Et)Tyr-hArg-Trp-β-Ala-D-Cys)-Thr-NH2] (H-[dF]CH[dY](Et)[hArg]W[βAla][dC]T-NH2; disulfide 2-8) | 10.25 | 7.50 | 7.83 | 8.03 | – | – | – | – | pEC50 [5, 11]: 9.46; pEC50 [6, 12]: 8.57; pEC50 [7, 13]: 8.27; pEC50 [8, 14]: 8.62
4 | CCOc1ccc(C[C@H]2NC(=O)[C@H](Cc3c[nH]cn3)NC(=O)[C@@H](NC(=O)[C@H](N)Cc3ccccc3)CSSC[C@H](C(=O)N[C@H](C(N)=O)[C@@H](C)O)NC(=O)CCNC(=O)[C@H](Cc3ccc(-c4ccccc4)cc3)NC(=O)[C@H](CCCCNC(=N)N)NC2=O)cc1 [D-Phe-c(Cys-His-D-(Et)Tyr-hArg-Bip-β-Ala-D-Cys)-Thr-NH2] (H-[dF]CH[dY](Et)[hArg][Bip][βAla][dC]T-NH2; disulfide 2-8) | 9.89 | 7.07 | 7.43 | 7.42 | – | – | – | – | pEC50 [5, 11]: 9.16; pEC50 [6, 12]: 7.09; pEC50 [7, 13]: 7.06; pEC50 [8, 14]: 7.50
5 | CCCC[C@H](NC(C)=O)C(=O)N[C@H]1CSSC[C@@H](C(N)=O)NC(=O)CCCNC(=O)[C@H](Cc2c[nH]c3ccccc23)NC(=O)[C@H](CCCNC(=N)N)NC(=O)[C@@H](Cc2ccc3ccccc3c2)NC(=O)[C@H](Cc2c[nH]cn2)NC1=O [Ac-Nle-c(Cys-His-D-2-Nal-Arg-Trp-Gaba-Cys)-NH2] (Ac-[Nle]CH[d2Nal]RW[GABA]C-NH2; disulfide 2-8) | 9.41 | 8.73 | 9.43 | 8.95 | 9.64 | 18.4 | 0.782 | 9.82 | –
6 | C[C@@H](O)[C@H](NC(=O)[C@H]1CSSC[C@H](NC(=O)[C@H](N)Cc2ccccc2)C(=O)N[C@@H](Cc2c[nH]cn2)C(=O)N[C@H](Cc2ccccc2)C(=O)N[C@@H](CCCNC(=N)N)C(=O)N[C@@H](Cc2c[nH]c3ccccc23)C(=O)NCCC(=O)N1)C(N)=O [D-Phe-c(Cys-His-D-Phe-Arg-Trp-β-Ala-D-Cys)-Thr-NH2] (H-[dF]CH[dF]RW[βAla][dC]T-NH2; disulfide 2-8) | 9.68 | 7.36 | 8.59 | 6.46 | – | – | – | – | –
7 | CCCC[C@H](NC(C)=O)C(=O)N[C@@H]1C(=O)N[C@@H](Cc2c[nH]cn2)C(=O)N[C@H](Cc2ccccc2)C(=O)N[C@@H](CCCNC(=N)N)C(=O)N[C@@H](Cc2c[nH]c3ccccc23)C(=O)NCCCC(=O)N[C@H](C(N)=O)CSSC1(C)C [Ac-Nle-c(Pen-His-D-Phe-Arg-Trp-Gaba-Cys)-NH2] (Ac-[Nle][Pen]H[dF]RW[GABA]C-NH2; disulfide 2-8 (inferred)) | 9.27 | 7.06 | 8.23 | 8.59 | – | – | – | – | –
8 | C[C@@H](O)[C@H](NC(=O)[C@H]1CSSC[C@H](NC(=O)[C@H](N)Cc2ccccc2)C(=O)N[C@@H](Cc2c[nH]cn2)C(=O)N[C@H](Cc2ccccc2)C(=O)N[C@@H](CCCCNC(=N)N)C(=O)N[C@@H](Cc2ccc(-c3ccccc3)cc2)C(=O)NCCC(=O)N1)C(N)=O [D-Phe-c(Cys-His-D-Phe-hArg-Bip-β-Ala-D-Cys)-Thr-NH2] (H-[dF]CH[dF][hArg][Bip][βAla][dC]T-NH2; disulfide 2-8 (inferred)) | 8.77 | 5.90 | 6.76 | 5.91 | – | – | – | – | –
9 | CCCC[C@H](NC(C)=O)C(=O)N[C@H]1CSSC[C@@H](C(N)=O)NC(=O)CCCCCNC(=O)[C@H](Cc2c[nH]c3ccccc23)NC(=O)[C@H](CCCNC(=N)N)NC(=O)[C@@H](Cc2ccc3ccccc3c2)NC(=O)[C@H](Cc2c[nH]cn2)NC1=O [Ac-Nle-c(Cys-His-D-2-Nal-Arg-Trp-Ahx-Cys)-NH2] (Ac-[Nle]CH[d2Nal]RW[Ahx]C-NH2; disulfide 2-8 (inferred)) | 9.48 | 8.54 | 9.00 | 9.44 | 9.24 | 10.8 | 0.967 | 9.90 | –
10 | CCCC[C@H](NC(C)=O)C(=O)N[C@H]1CSSC[C@@H](C(=O)O)NC(=O)[C@H](Cc2c[nH]c3ccccc23)NC(=O)[C@H](CCCNC(=N)N)NC(=O)[C@@H](Cc2ccccc2)NC(=O)[C@H](Cc2c[nH]cn2)NC(=O)[C@@H](C)NC1=O [Ac-Nle-c(Cys-D-Ala-His-D-Phe-Arg-Trp-Cys)-OH] | – | – | – | – | – | – | – | – | pKi ([1]; Ki hMC1-R, Table 5): 7.51; pKi ([2]; Ki hMC3-R, Table 5): 6.82; pKi ([3]; Ki KMC4-R, Table 5): 7.81; pKi ([4]; Ki hMC5-R, Table 5): 6.94
11 | CC(=O)N[C@@H](Cc1ccccc1)C(=O)N[C@H]1CSSC[C@@H](C(N)=O)NC(=O)CCCNC(=O)[C@H](Cc2c[nH]c3ccccc23)NC(=O)[C@H](CCCNC(=N)N)NC(=O)[C@@H](Cc2ccccc2)NC(=O)[C@H](Cc2c[nH]cn2)NC1=O [Ac-Phe-c(Cys-His-D-Phe-Arg-Trp-Gaba-Cys)-NH2] (Ac-FCH[dF]RW[GABA]C-NH2; disulfide 2-8) | – | – | – | – | – | – | – | – | pKi ([1]; Ki hMC1-R): 9.60; pKi ([2]; Ki hMC3-R): 7.73; pKi ([3]; Ki KMC4-R): 8.67; pKi ([4]; Ki hMC5-R): 9.15
12 | CCCC[C@H](NC(C)=O)C(=O)N[C@H]1CSSC[C@@H](C(N)=O)NC(=O)[C@H](Cc2c[nH]c3ccccc23)NC(=O)[C@H](CCCNC(=N)N)NC(=O)[C@@H](Cc2ccccc2)NC(=O)[C@H](Cc2c[nH]cn2)NC(=O)[C@@H](C)NC1=O [Ac-Nle-c(Cys-D-Ala-His-D-Phe-Arg-Trp-Cys)-NH2] | – | – | – | – | – | – | – | – | pKi ([1]; Ki hMC1-R, Table 5): 7.96; pKi ([2]; Ki hMC3-R, Table 5): 7.59; pKi ([3]; Ki KMC4-R, Table 5): 8.12; pKi ([4]; Ki hMC5-R, Table 5): 5.74; pEC50 [5]: 8.62; pEC50 [6]: 9.48; pEC50 [7]: 10.11; pEC50 [8]: 6.38
